Measured values taken from patent EP0398425A1, “Antirhinoviral piperidinyl, pyrrolidinyl and piperazinyl alkylphenol ethers” (JANSSEN PHARMACEUTICA N.V., priority 1989, dated 1990).
≈ marks a conversion by molar mass, not a printed value.

Columns and labels:
[1] = system: Human Rhinovirus serotypes HRV- 2,-29,-39,-85,-9,-15,-51,-59,-63,-89,-41; test: Picornavirus Minimal Inhibitory Concentration Test (cytopathic effect reduction assay), first panel of rhinoviruses; type: cell-based; conditions: Human rhinovirus sp.; medium value of the IC50-values of all serotypes of the first panel; Ohio Hela cells, 3 to 5 days at 33°C; IC50 = concentration protecting 50% of the cells from cytopathic effects; read-out: Med₁
Procedure: (§1) The Minimal Inhibitory Concentration of the compounds of the present invention against the Human Rhinovirus strains (HRV) -2,-9,-14,-15,-29,-39,-41,-42,-45,-51, -59, -63,-70,-72,-85,-86 and -89 was determined by a standard cytopathic effect reduction assay as follows. To each of the ninty six (96) wells of a microtiter 96 well tissue culture plate there was added 60 µl of a Ohio Hela cell maintenance medium [Eagle's Basal medium supplemented with 5% Foetal Calf Serum (FCS)]. To two wells there was added 60 µl of an appropriate starting dilution of a compound of formula (I) and two-fold dilutions were made to cover a wide range of compound concentrations. Subsequently there were added 120 µl of an infectious solution of virus in Eagle's Basal Medium with 2% Hepes buffer, 2% FCS and 30 mM MgCl₂ to all wells except cell and compound controls. Said infectious virus solution having a TCID₅₀-value (Tissue Culture Infectious Dose) of about 100.
(§2) The TCID₅₀-value is the dose of viruses which initiates a cytopathic effect in 50% of the inoculated cells. 150 µl of the thus obtained virus-compound mixtures were then transferred to microtitre plates with subconfluent Ohio Hela Cells, grown in 100 µl of maintenance medium. Appropriate virus controls, cell controls and compound controls were included in each test. Plates were incubated for 3 to 5 days at 33°C in 5% CO₂ atmosphere. […] The IC₅₀-value for each virus-compound series was taken as the concentration in ng/ml that protected 50% of the cells from cytopathic effects with respect to the untreated controls. In the standard test procedure, the compounds were tested against two panels of rhinoviruses, a first panel consisting of serotypes HRV- 2,-29,-39,-85,-9,-15,-51,-59,-63,-89,-41 and the other panel consisting of HRV-42,-45,-14,-70,-72 and -86.
(§3) The IC₅₀-value for each rhinovirus serotype was determined, and the efficacy of each compound was determined in terms of the Med₁-value and Med₂-value, which is the medium value of the IC₅₀-values of all serotypes from the first and second panel respectively.

[2] = system: Human Rhinovirus serotypes HRV-42,-45,-14,-70,-72 and -86; test: Picornavirus Minimal Inhibitory Concentration Test (cytopathic effect reduction assay), second panel of rhinoviruses; type: cell-based; conditions: Human rhinovirus sp., HRV42; medium value of the IC50-values of all serotypes of the second panel; Ohio Hela cells, 3 to 5 days at 33°C; IC50 = concentration protecting 50% of the cells from cytopathic effects; read-out: Med₂
Procedure: as §1, §2, §3

IC50 [1]	IC50 [2]	Structure (SMILES)
0.376 mg/L (≈ 0.999 µM)	0.172 mg/L (≈ 0.457 µM)	CCOC(=O)c1ccc(OCCCN2CCN(c3nncs3)CC2)cc1 [Compound 35]
0.312 mg/L (≈ 0.758 µM)	0.027 mg/L (≈ 0.0656 µM)	CCOC(=O)c1ccc(OCCN2CCN(c3nc4ccccc4s3)CC2)cc1 [Compound 46, ethyl 4-[2-[4-(2-benzothiazolyl)-1-piperazinyl]ethoxy]benzoate]
0.156 mg/L (≈ 0.349 µM)	0.097 mg/L (≈ 0.217 µM)	CCOC(=O)c1ccc(OCCCN2CCN(c3nc(C(=O)OCC)cs3)CC2)cc1 [Compound 49]
0.011 mg/L (≈ 0.0237 µM)	0.244 mg/L (≈ 0.525 µM)	CCc1noc(-c2ccc(OCCC3CCN(c4nnc(Br)s4)CC3)cc2)n1 [Compound 61]

Second part, the compound before the results:

Structure (SMILES)	IC50 [1]	IC50 [2]
CCOC(=O)c1ccc(OCCC2CCN(c3nc(C(=O)OCC)cs3)CC2)cc1 [Compound 6]	0.031 mg/L (≈ 0.0717 µM)	0.4 mg/L (≈ 0.925 µM)
CCOC(=O)c1ccc(OCCC2CCN(c3nnc(C)s3)CC2)cc1 [Compound 13, ethyl 4-[2-[1-(5-methyl-1,3,4-thiadiazol-2-yl)-4-piperidinyl]ethoxy]benzoate]	0.01 mg/L (≈ 0.0266 µM)	0.035 mg/L (≈ 0.0932 µM)
CCOC(=O)c1ccc(OCCC2CCN(C3=NS(=O)(=O)c4ccccc43)CC2)cc1 [Compound 14]	0.053 mg/L (≈ 0.12 µM)	0.344 mg/L (≈ 0.777 µM)
CCOC(=O)c1ccc(OCCC2CCN(c3nnc(Br)s3)CC2)cc1 [Compound 17]	0.006 mg/L (≈ 0.0136 µM)	0.0705 mg/L (≈ 0.16 µM)
CCOC(=O)c1ccc(OCCC2CCN(c3nsc4ccccc34)CC2)cc1 [Compound 19, ethyl 4-[2-[1-(1,2-benzisothiazol-3-yl)-4-piperidinyl]ethoxy]benzoate]	0.144 mg/L (≈ 0.351 µM)	0.25 mg/L (≈ 0.609 µM)
CCOC(=O)c1ccc(OCCN2CCN(c3nnc(Br)s3)CC2)cc1 [Compound 27]	0.044 mg/L (≈ 0.0997 µM)	0.011 mg/L (≈ 0.0249 µM)
CCOC(=O)c1ccc(OCCCN2CCN(c3nnc(Br)s3)CC2)cc1 [Compound 29]	0.175 mg/L (≈ 0.384 µM)	0.037 mg/L (≈ 0.0813 µM)
CCOC(=O)c1ccc(OCCN2CCN(c3nc(C(=O)OCC)cs3)CC2)cc1 [Compound 34, ethyl 2-[4-[2-[4-(ethoxycarbonyl)phenoxy]ethyl]-1-piperazinyl]-4-thiazolecarboxylate]	0.088 mg/L (≈ 0.203 µM)	0.009 mg/L (≈ 0.0208 µM)
